Measured values as given in patent US12077503B2, “Substituted cyclic amides and their use as herbicides” (FMC CORPORATION, priority 2015, dated 2024).

What was measured:
Format in all cases: in vivo
[1] = test system: barnyardgrass (Echinochloa crus-galli); assay: Test G Pre-Emergence Protocol; settings: Echinochloa crus-galli, pre-emergence, 312 h, evaluated after 13 days
How it was run: (§1)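 Pre-emergence spray, 15.625/62.5/250 g/ha, vehicle acetone:water 50:50 + 0.5% Tween 20, applied 1 d after sowing. Glasshouse 24/16° C, 14 h light, 65% RH, watered twice daily. Visual damage rating at 13 d, 0–100 scale.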

corn (Zea mays) [2] = assay: Test G Pre-Emergence Protocol; settings: Zea mays, pre-emergence, 312 h, evaluated after 13 days
How it was run: as §1

[3] = test system: giant foxtail (Setaria faberi); assay: Test G Pre-Emergence Protocol; settings: Setaria faberi, pre-emergence, 312 h, evaluated after 13 days
How it was run: as §1

[4] = test system: ivy-leaved morning glory (Ipomoea hederacea); assay: Test G Pre-Emergence Protocol; settings: Ipomoea, pre-emergence, 312 h, evaluated after 13 days
How it was run: as §1

[5] = test system: redroot pigweed (Amaranthus retroflexus); assay: Test G Pre-Emergence Protocol; settings: Amaranthus retroflexus, pre-emergence, 312 h, evaluated after 13 days
How it was run: as §1

[6] = test system: velvetleaf (Abutilon theophrasti); assay: Test G Pre-Emergence Protocol; settings: Abutilon theophrasti, pre-emergence, 312 h, evaluated after 13 days
How it was run: as §1

[7] = test system: barnyardgrass (Echinochloa crus-galli); assay: Test G Post-Emergence Protocol; settings: Echinochloa crus-galli, post-emergence, 312 h, read-out: Barnyardgrass damage rating
How it was run: (§2)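 Values are percent visual injury at 13 days after treatment (0 none, 100 total). Treatment was a post-emergence spray at 15.625, 62.5 or 250 g/ha on 8-day-old pot plants kept at 24/16 °C.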

corn (Zea mays) [8] = assay: Test G Post-Emergence Protocol; settings: Zea mays, post-emergence, 312 h, read-out: Corn damage rating
How it was run: as §2

[9] = test system: giant foxtail (Setaria faberi); assay: Test G Post-Emergence Protocol; settings: Setaria faberi, post-emergence, 312 h, read-out: Foxtail, Giant damage rating
How it was run: as §2

[10] = test system: ivy-leaved morning glory (Ipomoea hederacea); assay: Test G Post-Emergence Protocol; settings: Ipomoea, post-emergence, 312 h, read-out: Morningglory, Ivy-leaved damage rating
How it was run: as §2

[11] = test system: redroot pigweed (Amaranthus retroflexus); assay: Test G Post-Emergence Protocol; settings: Amaranthus retroflexus, post-emergence, 312 h, read-out: Pigweed, Redroot damage rating
How it was run: as §2

[12] = test system: velvetleaf (Abutilon theophrasti); assay: Test G Post-Emergence Protocol; settings: Abutilon theophrasti, post-emergence, 312 h, read-out: Velvetleaf damage rating
How it was run: as §2

[13] = 15.625 g ai/ha, evaluated after 13 days (100=total damage to plant; 0=no damage to plant)
[14] = 62.5 g ai/ha, evaluated after 13 days, 100=total damage to plant, 0=no damage to plant
[15] = 250 g ai/ha, evaluated after 13 days, 100=total damage to plant, 0=no damage to plant

Cc1cc([C@H]2CN(C)C(=O)[C@@H]2C(=O)Nc2cccc(F)c2F)cnn1 (racemic) [Compound 1662]
0%: pest or weed control at 15.625 g/ha ([1]; 15.625 g ai/ha, read-out: Barnyardgrass damage rating (100=total damage to plant; 0=no damage to plant)) | pest or weed control at 62.5 g/ha ([1]; 62.5 g ai/ha, 100=total damage to plant, 0=no damage to plant, read-out: Barnyardgrass damage rating) | pest or weed control at 250 g/ha ([1]; 250 g ai/ha, read-out: Barnyardgrass damage rating (100=total damage to plant; 0=no damage to plant)) | plant injury at 15.625 g/ha (corn (Zea mays) [2]; 15.625 g ai/ha, read-out: Corn damage rating (100=total damage to plant; 0=no damage to plant)) | plant injury at 62.5 g/ha (corn (Zea mays) [2]; 62.5 g ai/ha, 100=total damage to plant, 0=no damage to plant, read-out: Corn damage rating) | plant injury at 250 g/ha (corn (Zea mays) [2]; 250 g ai/ha, read-out: Corn damage rating (100=total damage to plant; 0=no damage to plant)) | pest or weed control at 15.625 g/ha ([3]; 15.625 g ai/ha, read-out: Foxtail, Giant damage rating (100=total damage to plant; 0=no damage to plant)) | pest or weed control at 62.5 g/ha ([3]; 62.5 g ai/ha, 100=total damage to plant, 0=no damage to plant, read-out: Foxtail, Giant damage rating) | pest or weed control at 250 g/ha ([3]; 250 g ai/ha, read-out: Foxtail, Giant damage rating (100=total damage to plant; 0=no damage to plant)) | pest or weed control at 15.625 g/ha ([4]; 15.625 g ai/ha, read-out: Morningglory, Ivy-leaved damage rating (100=total damage to plant; 0=no damage to plant)) | pest or weed control at 62.5 g/ha ([4]; 62.5 g ai/ha, 100=total damage to plant, 0=no damage to plant, read-out: Morningglory, Ivy-leaved damage rating) | pest or weed control at 250 g/ha ([4]; 250 g ai/ha, read-out: Morningglory, Ivy-leaved damage rating (100=total damage to plant; 0=no damage to plant)) | pest or weed control at 15.625 g/ha ([5]; 15.625 g ai/ha, read-out: Pigweed, Redroot damage rating (100=total damage to plant; 0=no damage to plant)) | pest or weed control at 62.5 g/ha ([5]; 62.5 g ai/ha, 100=total damage to plant, 0=no damage to plant, read-out: Pigweed, Redroot damage rating) | pest or weed control at 250 g/ha ([5]; 250 g ai/ha, read-out: Pigweed, Redroot damage rating (100=total damage to plant; 0=no damage to plant)) | pest or weed control at 15.625 g/ha ([6]; 15.625 g ai/ha, read-out: Velvetleaf damage rating (100=total damage to plant; 0=no damage to plant)) | pest or weed control at 62.5 g/ha ([6]; 62.5 g ai/ha, 100=total damage to plant, 0=no damage to plant, read-out: Velvetleaf damage rating) | pest or weed control at 250 g/ha ([6]; 250 g ai/ha, read-out: Velvetleaf damage rating (100=total damage to plant; 0=no damage to plant)) | pest or weed control at 15.625 g/ha [7, 13] | pest or weed control at 62.5 g/ha [7, 14] | pest or weed control at 250 g/ha [7, 15] | plant injury at 15.625 g/ha (corn (Zea mays) [8]; [13]) | plant injury at 62.5 g/ha (corn (Zea mays) [8]; [14]) | plant injury at 250 g/ha (corn (Zea mays) [8]; [15]) | pest or weed control at 15.625 g/ha [9, 13] | pest or weed control at 62.5 g/ha [9, 14] | pest or weed control at 250 g/ha [9, 15] | pest or weed control at 15.625 g/ha [10, 13] | pest or weed control at 62.5 g/ha [10, 14] | pest or weed control at 250 g/ha [10, 15] | pest or weed control at 15.625 g/ha [11, 13] | pest or weed control at 62.5 g/ha [11, 14] | pest or weed control at 250 g/ha [11, 15] | pest or weed control at 15.625 g/ha [12, 13] | pest or weed control at 62.5 g/ha [12, 14] | pest or weed control at 250 g/ha [12, 15]
